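1) Cells in 96-well plates. 2) Compound, 48 h, 5 concentrations. 3) Linear interpolation between surrounding doses. 4) Unreached endpoint = highest concentration. TGI denotes the concentration required for complete inhibition of growth.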
Experiments:
Test in all cases: DTP human tumour cell line panel, 48 h
[1] = system: OVCAR-3 ovarian
[2] = system: OVCAR-5 ovarian
[3] = system: TK-10 renal
[4] = system: LOX IMVI melanoma
[5] = system: U251 CNS
[6] = system: M14 melanoma
[7] = system: SNB-75 CNS
[8] = system: SNB-19 CNS
[9] = system: SK-MEL-5 melanoma
[10] = system: UO-31 renal
[11] = system: SK-MEL-2 melanoma
[12] = system: IGROV1 ovarian
[13] = system: A549 NSCLC
[14] = system: RXF-631 renal
[15] = system: MALME-3M melanoma
[16] = system: COLO 205 colon
[17] = system: HOP-18 NSCLC
[18] = system: DMS 273 small cell lung
[19] = system: DMS 114 small cell lung
[20] = system: NCI-H522 lung
[21] = system: K-562 leukemia
[22] = system: UACC-62 melanoma
[23] = system: OVCAR-8 ovarian
[24] = system: ACHN renal
[25] = system: SW-620 colon
[26] = system: HL-60(TB) leukemia
[27] = system: CAKI-1 renal
[28] = system: HT29 colon
[29] = system: OVCAR-4 ovarian
[30] = system: DLD-1 colon
[31] = system: CCRF-CEM leukemia
[32] = system: SF-268 CNS
[33] = system: SN12C renal
[34] = system: HOP-92 NSCLC
[35] = system: M19-MEL melanoma
[36] = system: NCI-H460 lung
[37] = system: EKVX NSCLC
[38] = system: KM20L2 colon
[39] = system: NCI-H226 lung
[40] = system: UACC-257 melanoma
[41] = system: HCC-2998 colon
[42] = system: 786-0 renal
[43] = system: SF-539 CNS
[44] = system: SK-MEL-28 melanoma
[45] = system: HCT-116 colon
[46] = system: HCT-15 colon
[47] = system: SR leukemia
[48] = system: LXFL 529 NSCLC
[49] = system: MOLT-4 leukemia
[50] = system: SF-295 CNS
[51] = system: KM12 colon
[52] = system: NCI-H23 lung
[53] = system: SK-OV-3 ovarian
[54] = system: A498 renal
[55] = system: SNB-78 CNS
[56] = system: RXF 393 renal
[57] = system: RPMI-8226 leukemia
[58] = system: HOP-62 NSCLC

COC(=O)C1Cc2c([nH]c3ccccc23)C(C2CCCCC2)N1 (stereo not given)
TGI [1]: > 100 µM
TGI [2]: > 100 µM
TGI [3]: > 100 µM
TGI [4]: > 100 µM
TGI [5]: > 100 µM
TGI [6]: > 100 µM
TGI [7]: > 100 µM
TGI [8]: > 100 µM
TGI [9]: > 100 µM
TGI [10]: > 100 µM
TGI [11]: > 100 µM
TGI [12]: > 100 µM
TGI [13]: > 100 µM
TGI [14]: > 100 µM
TGI [15]: > 100 µM
TGI [16]: > 100 µM
TGI [17]: > 100 µM
TGI [18]: > 100 µM
TGI [19]: > 100 µM
TGI [20]: > 100 µM
TGI [21]: > 100 µM
TGI [22]: > 100 µM
TGI [23]: > 100 µM
TGI [24]: > 100 µM
TGI [25]: > 100 µM
TGI [26]: > 100 µM
TGI [27]: > 100 µM
TGI [28]: > 100 µM
TGI [29]: > 100 µM
TGI [30]: > 100 µM
TGI [31]: > 100 µM
TGI [32]: > 100 µM
TGI [33]: > 100 µM
TGI [34]: > 100 µM
TGI [35]: > 100 µM
TGI [36]: > 100 µM
TGI [37]: > 100 µM
TGI [38]: > 100 µM
TGI [39]: > 100 µM
TGI [40]: > 100 µM
TGI [41]: > 100 µM
TGI [42]: > 100 µM
TGI [43]: > 100 µM
TGI [44]: > 100 µM
TGI [45]: > 100 µM
TGI [46]: > 100 µM
TGI [47]: > 100 µM
TGI [48]: > 100 µM
TGI [49]: > 100 µM
TGI [50]: > 100 µM
TGI [51]: > 100 µM
TGI [52]: > 100 µM
TGI [53]: > 100 µM

COc1ccc(C(=C[N+](=O)[O-])c2ccc(OC)cc2)cc1
TGI [1]: 46.1 µM
TGI [2]: 99.5 µM
TGI [3]: 99.3 µM
TGI [4]: 46.4 µM
TGI [5]: 17.9 µM
TGI [6]: 41.8 µM
TGI [7]: 30.3 µM
TGI [8]: > 94.4 µM
TGI [9]: > 100 µM
TGI [10]: 88.9 µM
TGI [11]: 33.3 µM
TGI [12]: > 63.3 µM
TGI [13]: > 100 µM
TGI [14]: > 100 µM
TGI [15]: > 100 µM
TGI [16]: 15.5 µM
TGI [17]: > 100 µM
TGI [18]: 22.9 µM
TGI [54]: 41.3 µM
TGI [19]: 23.7 µM
TGI [20]: 32.7 µM
TGI [21]: > 100 µM
TGI [22]: > 100 µM
TGI [23]: 37.9 µM
TGI [24]: > 100 µM
TGI [25]: > 73.3 µM
TGI [26]: > 34.7 µM
TGI [27]: > 100 µM
TGI [55]: > 84.5 µM
TGI [28]: 20.1 µM
TGI [29]: > 100 µM
TGI [30]: > 84.3 µM
TGI [31]: > 92.7 µM
TGI [32]: > 100 µM
TGI [33]: > 100 µM
TGI [34]: > 100 µM
TGI [36]: 54.7 µM
TGI [37]: > 100 µM
TGI [38]: 26.9 µM
TGI [39]: 52.4 µM
TGI [40]: > 92.6 µM
TGI [41]: 31.5 µM
TGI [42]: > 89 µM
TGI [43]: 29.3 µM
TGI [56]: 49.1 µM
TGI [44]: > 100 µM
TGI [45]: 27.8 µM
TGI [46]: > 100 µM
TGI [47]: 45.1 µM
TGI [48]: > 100 µM
TGI [49]: 29.3 µM
TGI [57]: 26.3 µM
TGI [50]: 25.1 µM
TGI [51]: > 46.5 µM
TGI [52]: > 57.1 µM
TGI [58]: 50.6 µM
TGI [53]: 36.2 µM
